Test results published in patent US20240043404A1 (AbbVie Inc., priority 2009, published 2024).

Tested on: RS4;11 cells
Experiment: RS4;11 cell viability assay (CellTiter Glo);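 note: acute lymphoblastic leukemia line RS4,11, EC50 derived from percentage of viable cells after treatment relative to untreated controls, cell killing taken as a measure of Bcl-2 inhibition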
Type: cell-based, human
Conditions: Homo sapiens, RS4-11, 48 h, 50,000 cells per well, 10% human serum, 48 hours; read-out: RS4; 11 EC50 Values
Method: The acute lymphoblastic leukemia (ALL) cell line RS4;11 was used as the primary human cell line to assess the cellular activity of Bcl-2 selective agents in vitro and their efficacy in vivo.
Cell cytotoxicity EC50 values were assessed using CellTiter Glo (Promega) according to the manufacturer's recommendations. The EC50 values were determined as a percentage of viable cells following treatment compared to the untreated control cells.

| EC50 [nM] | SMILES |
| --- | --- |
| 48.1 | CC1(C)CCC(CN2CCN(c3ccc(C(=O)NS(=O)(=O)c4ccc(NC5CCS(=O)(=O)CC5)c([N+](=O)[O-])c4)c(Oc4cnc5[nH]ccc5c4)c3)CC2)=C(c2ccc(Cl)cc2)C1 [Example 81, 4-(4-{[2-(4-chlorophenyl)-4,4-dimethylcyclohex-1-en-1-yl]methyl}piperazin-1-yl)-N-({4-[(1,1-dioxidotetrahydro-2H-thiopyran-4-yl)amino]-3-nitrophenyl}sulfonyl)-2-(1H-pyrrolo[2,3-b]pyridin-5-yloxy)benzamide] |
| 684 | CC1(C)CCC(CN2CCN(c3ccc(C(=O)NS(=O)(=O)c4ccc(Cl)c([N+](=O)[O-])c4)c(Oc4cnc5[nH]ccc5c4)c3)CC2)=C(c2ccc(Cl)cc2)C1 [Example 82, N-[(4-chloro-3-nitrophenyl)sulfonyl]-4-(4-{[2-(4-chlorophenyl)-4,4-dimethylcyclohex-1-en-1-yl]methyl}piperazin-1-yl)-2-(1H-pyrrolo[2,3-b]pyridin-5-yloxy)benzamide] |
| 197 | CC1(C)CCC(CN2CCN(c3ccc(C(=O)NS(=O)(=O)c4ccc(NC5CCN(CC(F)(F)F)CC5)c([N+](=O)[O-])c4)c(Oc4cnc5[nH]ccc5c4)c3)CC2)=C(c2ccc(Cl)cc2)C1 [Example 83, 4-(4-{[2-(4-chlorophenyl)-4,4-dimethylcyclohex-1-en-1-yl]methyl}piperazin-1-yl)-N-[(3-nitro-4-{[1-(2,2,2-trifluoroethyl)piperidin-4-yl]amino}phenyl)sulfonyl]-2-(1H-pyrrolo[2,3-b]pyridin-5-yloxy)benzamide] |
| 158 | CC1(C)CCC(CN2CCN(c3ccc(C(=O)NS(=O)(=O)c4cnc(OC5CCN(C6CCOCC6)CC5)c(C#N)c4)c(Oc4cnc5[nH]ccc5c4)c3)CC2)=C(c2ccc(Cl)cc2)C1 [Example 84, 4-(4-{[2-(4-chlorophenyl)-4,4-dimethylcyclohex-1-en-1-yl]methyl}piperazin-1-yl)-N-({5-cyano-6-[(1-tetrahydro-2H-pyran-4-ylpiperidin-4-yl)oxy]pyridin-3-yl}sulfonyl)-2-(1H-pyrrolo[2,3-b]pyridin-5-yloxy)benzamide] |
| 1950 | CC(C)c1cc(S(=O)(=O)NC(=O)c2ccc(N3CCN(CC4=C(c5ccc(Cl)cc5)CC(C)(C)CC4)CC3)cc2Oc2cnc3[nH]ccc3c2)cnc1OCC1CCOCC1 [Example 85, 4-(4-{[2-(4-chlorophenyl)-4,4-dimethylcyclohex-1-en-1-yl]methyl}piperazin-1-yl)-N-{[5-isopropyl-6-(tetrahydro-2H-pyran-4-ylmethoxy)pyridin-3-yl]sulfonyl}-2-(1H-pyrrolo[2,3-b]pyridin-5-yloxy)benzamide] |
| 1020 | CC1(C)CCC(CN2CCN(c3ccc(C(=O)NS(=O)(=O)c4cc(F)c(NCC5CCOCC5)c(Cl)c4)c(Oc4cnc5[nH]ccc5c4)c3)CC2)=C(c2ccc(Cl)cc2)C1 [Example 86, N-({3-chloro-5-fluoro-4-[(tetrahydro-2H-pyran-4-ylmethyl)amino]phenyl}sulfonyl)-4-(4-{[2-(4-chlorophenyl)-4,4-dimethylcyclohex-1-en-1-yl]methyl}piperazin-1-yl)-2-(1H-pyrrolo[2,3-b]pyridin-5-yloxy)benzamide] |

| SMILES | EC50 [nM] |
| --- | --- |
| O=C(NS(=O)(=O)c1ccc(NCCCN2CCOCC2)c([N+](=O)[O-])c1)c1ccc(N2CCN(Cc3ccccc3-c3ccc(Cl)cc3)CC2)cc1Oc1ccc2[nH]ccc2c1 [Example 88, 4-{4-[(4′-chloro-1,1′-biphenyl-2-yl)methyl]piperazin-1-yl}-2-(1H-indol-5-yloxy)-N-({4-[(3-morpholin-4-ylpropyl)amino]-3-nitrophenyl}sulfonyl)benzamide] | 447 |
